Results reported in ChEMBL document CHEMBL6182898, “Design, synthesis and bioevaluation of novel hydrazide derivatives as enhancers of immunotherapy and DNA-damage response in antitumor therapy” (Eur J Med Chem, 2025).
The source made the active and inactive calls. The rule behind the calls is not given here.

Columns and labels:
[1] = molecular target: T1, Histone deacetylase 3 (Mus musculus) (UniProt O88895); assay: Inhibition of HDAC3 in mouse B16-F10 cells assessed as increase in Ac-H3K56 level at 2.5 to 10 uM incubated for 24 hrs by Western blot analysis; format: cell-based; details: dose 2.5-10 µM
T1 sequence (whole entry): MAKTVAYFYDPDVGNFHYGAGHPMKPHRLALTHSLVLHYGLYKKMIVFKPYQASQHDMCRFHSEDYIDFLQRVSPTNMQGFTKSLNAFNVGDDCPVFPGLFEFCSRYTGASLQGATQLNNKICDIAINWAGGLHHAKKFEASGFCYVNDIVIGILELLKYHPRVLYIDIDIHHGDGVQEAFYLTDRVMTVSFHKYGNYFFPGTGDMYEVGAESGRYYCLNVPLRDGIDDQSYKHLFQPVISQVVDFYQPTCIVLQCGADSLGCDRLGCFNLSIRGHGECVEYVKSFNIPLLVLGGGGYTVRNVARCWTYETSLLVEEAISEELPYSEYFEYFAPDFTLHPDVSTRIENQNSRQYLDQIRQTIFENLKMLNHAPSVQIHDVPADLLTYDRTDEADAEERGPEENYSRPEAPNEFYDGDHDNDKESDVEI

[2] = Clearance in male Sprague-Dawley rat at 2 mg/kg, iv measured for 0.083 to 12 hrs by LC-MS/MS analysis; format: ADME, organism-based; details: in vivo, time 0.083-12 hrs
[3] = molecular target: Programmed cell death 1 ligand 1 (Mus musculus) (UniProt Q9EP73); assay: Induction of PD-L1 degradation in mouse B16-F10 cells at 5 uM incubated for 24 hrs in presence of MG-132 by Western blot analysis; format: cell-based
SK-OV-3 = assay: cells; format: functional; details: Homo sapiens, time 72 hrs
B16-F10 [4] = assay: Induction of apoptosis in mouse B16-F10 cells assessed as late-stage apoptosis at 5 uM incubated for 48 hrs by Annexin V-FITC/PI staining based flow cytometry relative to control; format: functional
4T1 [5] = assay: Induction of DNA damage in mouse 4T1 cells assessed as increase in gamma-H2AX level at 2 uM incubated for 24 hrs by Western blot analysis; format: functional, cell-based
K562 = assay: cells; format: functional; details: Homo sapiens, time 72 hrs
[6] = Oral bioavailability in male Sprague-Dawley rat at 20 mg/kg measured for 0.083 to 12 hrs by LC-MS/MS analysis; format: ADME, organism-based; details: in vivo, time 0.083-12 hrs
[7] = VRT (0 to infinity) in male Sprague-Dawley rat at 2 mg/kg, iv measured for 0.083 to 12 hrs by LC-MS/MS analysis; format: ADME, organism-based; details: in vivo, time 0.083-12 hrs
B16-F10 [8] = assay: Induction of apoptosis in mouse B16-F10 cells incubated for 48 hrs by Annexin V-FITC/PI staining based flow cytometry; format: functional, cell-based; details: dose 2.5-10 µM
[9] = Half life in male Sprague-Dawley rat at 2 mg/kg, iv measured for 0.083 to 12 hrs by LC-MS/MS analysis; format: ADME, organism-based; details: in vivo, time 0.083-12 hrs
B16-F10 [10] = assay: Induction of antitumor immunity in mouse B16-F10 cells implanted in male C57BL/6J mouse assessed as CD3+CD4+ T cell infiltration at 50 mg/kg, IG treated for 14 days consecutively by flow cytometry (reference value: 7.4 %); format: functional; details: time 14 day
[11] = Toxicity in male C57BL/6J mouse implanted with mouse B16-F10 cells assessed as body weight change at 25 mg/kg, IG treated for 14 days consecutively in presence of NP-19; format: organism-based; details: in vivo, po, 336 h, time 14 day
B16-F10 [12] = assay: Induction of antitumor immunity in mouse B16-F10 cells assessed as increase in IFN-gamma level incubated for 24 hrs by Western blot analysis; format: functional, cell-based; details: dose 2.5-10 µM
B16-F10 [13] = assay: Inhibition of cell migration in mouse B16-F10 cells at 5 uM by transwell assay relative to control; format: functional
[14] = Tmax in male Sprague-Dawley rat at 2 mg/kg, iv measured for 0.083 to 12 hrs by LC-MS/MS analysis; format: ADME, organism-based; details: in vivo, time 0.083-12 hrs
[15] = Clast in male Sprague-Dawley rat at 2 mg/kg, iv measured for 0.083 to 12 hrs by LC-MS/MS analysis; format: ADME, organism-based; details: in vivo, time 0.083-12 hrs
[16] = AUC (0 to infinity) in male Sprague-Dawley rat at 2 mg/kg, iv measured for 0.083 to 12 hrs by LC-MS/MS analysis; format: ADME, organism-based; details: in vivo, time 0.083-12 hrs
B16-F10 [17] = assay: Induction of apoptosis in mouse B16-F10 cells assessed as late-stage apoptosis at 10 uM incubated for 48 hrs by Annexin V-FITC/PI staining based flow cytometry relative to control; format: functional
B16-F10 [18] = assay: Antitumor activity against mouse B16-F10 cells implanted in male C57BL/6J mouse at 50 mg/kg, IG treated for 14 days consecutively relative to control; format: functional; details: B16-F10, po, 336 h, time 14 day, read-out: TGI
[19] = Toxicity in male C57BL/6J mouse implanted with mouse B16-F10 cells assessed as body weight change at 50 mg/kg, IG treated for 14 days consecutively; format: organism-based; details: in vivo, po, 336 h, time 14 day
B16-F10 [20] = assay: Induction of antitumor immunity in mouse B16-F10 cells assessed as decrease in NCOR2 level at 2.5 to 10 uM incubated for 24 hrs by Western blot analysis; format: functional, cell-based; details: dose 2.5-10 µM
[21] = VRT (0 to t) in male Sprague-Dawley rat at 2 mg/kg, iv measured for 0.083 to 12 hrs by LC-MS/MS analysis; format: ADME, organism-based; details: in vivo, time 0.083-12 hrs
[22] = MRT (0 to infinity) in male Sprague-Dawley rat at 20 mg/kg, po measured for 0.083 to 12 hrs by LC-MS/MS analysis; format: ADME, organism-based; details: in vivo, time 0.083-12 hrs
[23] = Apparent volume of distribution in male Sprague-Dawley rat at 2 mg/kg, iv measured for 0.083 to 12 hrs by LC-MS/MS analysis; format: ADME, organism-based; details: in vivo, time 0.083-12 hrs, read-out: Vz
B16-F10 [24] = assay: cells; format: functional; details: Mus musculus, time 72 hrs
4T1 [25] = assay: cells; format: functional; details: Mus musculus, time 72 hrs
B16-F10 [26] = assay: Inhibition of cell invasion in mouse B16-F10 cells at 5 uM by transwell assay relative to control; format: functional
[27] = Toxicity in male C57BL/6J mouse implanted with mouse B16-F10 cells assessed as histopathological damage in kidney at 50 mg/kg, IG treated for 14 days consecutively by H and E staining based analysis; format: organism-based; details: in vivo, po, 336 h, time 14 day
[28] = molecular target: Programmed cell death 1 ligand 1 (Mus musculus) (UniProt Q9EP73); assay: Induction of PD-L1 degradation in mouse B16-F10 cells at 2 uM incubated for 24 hrs in presence of CA-074 by Western blot analysis; format: cell-based
[29] = AUMC (0 to t) in male Sprague-Dawley rat at 20 mg/kg, po measured for 0.083 to 12 hrs by LC-MS/MS analysis; format: ADME, organism-based; details: in vivo, time 0.083-12 hrs
[30] = molecular target: T1, Histone deacetylase 3 (Mus musculus); assay: Inhibition of HDAC3 in mouse B16-F10 cells assessed as increase in Ac-H3 level at 2.5 uM incubated for 24 hrs by immunofluorescence based analysis; format: cell-based
B16-F10 [31] = assay: Induction of antitumor immunity in mouse B16-F10 cells implanted in male C57BL/6J mouse assessed as increase in T cell infiltration at 25 mg/kg, IG treated for 14 days consecutively in presence of NP-19 by immunofluorescence based analysis; format: functional, organism-based; details: time 14.0 day

Chain of Programmed cell death 1 ligand 1 (Mus musculus) (Q9EP73 whole entry): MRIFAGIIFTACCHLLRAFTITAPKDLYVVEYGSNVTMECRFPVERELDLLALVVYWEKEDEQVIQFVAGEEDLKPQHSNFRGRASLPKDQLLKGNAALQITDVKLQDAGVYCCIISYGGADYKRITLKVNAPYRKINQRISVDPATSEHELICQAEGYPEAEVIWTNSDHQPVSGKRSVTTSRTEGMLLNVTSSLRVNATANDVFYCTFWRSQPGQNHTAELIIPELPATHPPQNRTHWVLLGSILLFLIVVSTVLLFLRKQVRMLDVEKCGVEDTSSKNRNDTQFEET

Structure (SMILES)	inhibition [1]	inhibition at 10 µM (SK-OV-3)	Activity (B16-F10 [4])	inhibition at 10 µM (K562)	Activity (B16-F10 [8])	Activity (B16-F10 [12])	inhibition at 5 µM (B16-F10 [13])	Activity (B16-F10 [17])	Activity (B16-F10 [20])	inhibition at 10 µM (B16-F10 [24])	inhibition at 10 µM (4T1 [25])	inhibition at 5 µM (B16-F10 [26])	inhibition [30]	other results
CCCNNC(=O)CCCCCCNC(=O)c1cnc(-c2ccc(NC(=O)OC(C)(C)C)cc2)s1	Active	< 50%	43.5%	73.1%	Dose-dependent-effect; Activity Similar To Vorinostat	Dose-dependent-effect; Activity Was Similar To Ms-275	> 70%	51.5%	Active	60.7%	33.1%	> 70%	Active	clearance [2]: 53.8 mL/min/kg; Activity [3]: Active; Activity (4T1 [5]): Active; bioavailability [6]: 0.49%; VRT [7]: 0.98 h²; half-life [9]: 2.21 h; Activity (B16-F10 [10]): 12%; Activity [11]: Non-toxic; Tmax [14]: 4.8 min; Clast [15]: 0.24 ng/mL; AUC(0-inf) [16]: 658 ng·h/mL; inhibition in vivo at 50 mg/kg (B16-F10 [18]): 59%; Activity [19]: Non-toxic; VRT(t) [21]: 0.55 h²; MRT inf [22]: 3.13 h; Vd [23]: 10.6 L/kg; Activity [27]: Non-toxic; Activity [28]: inactive; AUMCt [29]: 77.04 hr.hr.ug/L; Activity (B16-F10 [31]): Active
CCCNNC(=O)c1ccc(NC(=O)c2cnc(-c3ccc(OC(F)(F)F)cc3)s2)cc1	Active	< 50%	45.8%	52.6%	Dose-dependent-effect; Activity Similar To Vorinostat	Dose-dependent-effect; Activity Was Similar To Ms-275	> 70%	55.3%	Active	54.7%	32.8%	> 70%	Active	
